The test system of assay [1] is mechanical blink response in normal rats. The assay can be described thus: corneal anesthetic activity, blinks induced by mechanical touch (Cochet-Bonnet Esthesiometer). Format: in vivo, Sprague Dawley rats. To be noted: rat; for inhibition of mechanical blink response / topical anesthetic activity (in words): 1% concentration; for Total number of Blinks/Total number of Touches: 20 μl topical ocular, N = 6/group; for Total number of Blinks/Total number of Touches / % Blocked (mechanical blink response): pretreatment 5 min; for % Blocked (mechanical blink response): topical ocular. The text has this: Corneal anesthetic effects of TRPV1 antagonists were examined by analyzing suppression of blinks induced by mechanical touch. A Cochet-Bonnet Esthesiometer was used to determine corneal anesthetic activities of the TRPV1 antagonist, AMG-517 (AL-49975), in normal rats. Male Sprague Dawley rats (˜500 g) were divided into groups of 6 each, restrained in a DecapiCone rat restraint, and secured at the posterior with tape. A hole was cut into the cone to expose the right eye. Twenty-four hours prior to the experiment the eyelashes and whiskers were trimmed with scissors. The right eye was dosed with 20 μl of drug or maxidex vehicle, and the timer was set for 5 minutes to allow the rat time to acclimate. The Cochet-Bonnet Esthesiometer fiber was set at 30 mm and perpendicularly touched by a masked observer to the center of the cornea 10 times with a 3 second delay between counts. Blinks were counted with each touch of the fiber, and a total score out of 10 was recorded. If more than one blink occurred in response to a single touch, this event was counted as one blink response.

Assay [2] deals with Formalin-Induced Blink Response in Rats. The assay is described as follows: formalin-induced blink response assay (ocular pain). Format: in vivo, Sprague-Dawley rats. As to conditions: rat; for Number of Blinks/1 min Mean ± S.D.: 20 μL topical ocular, 0.1% formalin challenge; for Number of Blinks/1 min Mean ± S.D. / % Inhibition of formalin-induced blink response: pretreatment 5 min; for % Inhibition of formalin-induced blink response: topical ocular; for inhibition of formalin-induced blink response (in words): highest concentration tested (1%). Here is the method:
The effects of two transient receptor potential vanilloid receptor subfamily, member 1 (TRPV1) antagonists on ocular pain in rats were tested using a formalin-induced blink response assay. Sprague-Dawley rats were treated topical ocular with 20 μL of vehicle (maxidex vehicle), N-{4-[6-(4-trifluoromethyl-phenyl)-pyrimidin-4-yloxy]-benzothiazol-2-yl}-acetamide (AL-49975, also known as AMG-517, Amgen Inc., Thousand Oaks, Calif.), or (R)—N-(4-(6-(4-(1-(4-fluorophenyl)ethyl)piperazin-1-yl)pyrimidin-4-yloxy)benzo[d]thiazol-2-yl)acetamide (AL-49976, also known as AMG-628, Amgen Inc., Thousand Oaks, Calif.) to one eye only. After the appropriate pretreatment time of about 5 minutes, 5 μL of 0.1% formalin was applied topical ocular. Each rat was placed in a clear plastic box, and the number of blinks was counted for 1 minute immediately following the formalin challenge.

Where [3] appears, read: 1% conc., *p < 0.05 Dunnett's t-test.

On to `CC(=O)Nc1nc2c(Oc3cc(-c4ccc(C(F)(F)F)cc4)ncn3)cccc2s1` [AL-49975, N-{4-[6-(4-trifluoromethyl-phenyl)-pyrimidin-4-yloxy]-benzothiazol-2-yl}-acetamide], for which the “inhibition of mechanical blink response / topical anesthetic activity (in words)” value in assay [1] was “did not significantly inhibit the blink response”; in assay [1] (listed as AMG-517), “did not have topical anesthetic activity”. Moreover, the “Total number of Blinks/Total number of Touches” value in assay [1] (1%) is 54/60. For the same compound, in assay [1] (1%), the “% Blocked (mechanical blink response)” value was 10%. Besides, the “Number of Blinks/1 min Mean ± S.D.” value was found to be 58 ± 11 Blinks/1 min in assay [2] (0.01% conc.), 51 ± 18 Blinks/1 min in assay [2] (0.1% conc.) and 44 ± 17 Blinks/1 min in assay [2] (1% conc.). In addition, the “% Inhibition of formalin-induced blink response” value was 20% in assay [2] (0.01% conc.), 29% in assay [2] (0.1% conc.) and 39* % in assay [2] (setting [3]). Besides, the “inhibition of formalin-induced blink response (in words)” value in assay [2] is recorded as “dose-dependent fashion, achieving significant inhibition”.

Consider `CC(=O)Nc1nc2c(Oc3cc(N4CCN([C@H](C)c5ccc(F)cc5)CC4)ncn3)cccc2s1` [AL-49976, (R)—N-(4-(6-(4-(1-(4-fluorophenyl)ethyl)piperazin-1-yl)pyrimidin-4-yloxy)benzo[d]thiazol-2-yl)acetamide], for which the “Number of Blinks/1 min Mean ± S.D.” value in assay [2] (0.01% conc.) stood at 58 ± 7 Blinks/1 min; in assay [2] (0.1% conc.), 66 ± 23 Blinks/1 min; in assay [2] (1% conc.), 47 ± 11 Blinks/1 min. Also, the “% Inhibition of formalin-induced blink response” value in assay [2] (0.01% conc.) is reported as 19%; in assay [2] (0.1% conc.) it was 9%; in assay [2] (setting [3]), 35* %. In addition, the “inhibition of formalin-induced blink response (in words)” value in assay [2] is on record as “significantly inhibited the pain response”.

For the compound `CCCOc1ccc(C(=O)OCCN(CC)CC)cc1N` [Alcaine, proparacaine, reference compound], the “Total number of Blinks/Total number of Touches” value in assay [1] (0.5%) was 2/60. Moreover, the “% Blocked (mechanical blink response)” value in assay [1] (0.5%, *p < 0.01 Chi-squared vs. vehicle) is reported as 97* %; in assay [1] (0.5%, *p < 0.01 Chi-squared vs. vehicle, listed as proparacaine), 95%.

The values are drawn from patent US20090131449A1, “USE OF TRPV1 RECEPTOR ANTAGONISTS FOR TREATING DRY EYE AND OCULAR PAIN” (ALCON RESEARCH, LTD., priority 2007, published 2009).
